Key:
[1] = test system: A. castellanii genotype T4 (ATCC 50492) trophozoites; test: Amoebicidal assay (Trypan blue exclusion, haemocytometer counting); assay type: cell-based, Acanthamoeba castellanii; settings: for Amoebicidal Activity Inhibition % ± SEM: 50 µM concentration, Supplementary Table S1; for amoebicidal effects / antiamoebic activity against A. castellanii: 50 µM, 24 h, 30 °C; for IC50: tested at 12.5, 25, 50 and 100 µM against A. castellanii
Method: A. castellanii genotype T4 (ATCC 50492) trophozoites were used in this study. The amoebae were axenically cultivated at 30 °C in T-75 cm^3 culture flask using a proteose-peptone yeast extract-glucose (PYG) broth culture. Upon confluency, amoeba cultured flask was placed on ice for 10 min followed by gently tapping to dislodge the adhered trophozoites. Next, culture was centrifuged at 3000× g for 5 min. The supernatant was discarded and the pellet was re-suspended in 1 mL of Roswell Park Memorial Institute (RPMI) media. Finally, amoebae were counted via haemocytometer microscopically and the desired initial inoculum (5 × 10^5) was adjusted and used in different assays. Different molecules were tested against A. castellanii to examine their antiamoebic effects as previously reported. Briefly, A. castellanii (5 × 10^5) were incubated with 50 µM of the tested compounds for 24 h at 30 °C with a final assays volume of 0.5 mL in a 24-well plate. For controls, amoebae cultured in RPMI alone and with 0.25% sodium dodecyl sulfate (SDS) was taken as negative and positive control, respectively. Finally, each well was stained with Trypan blue (0.1%) and viable amoebae trophozoites were enumerated by haemocytometer. In some trails, these compounds were tested at different concentrations (12.5, 25, 50 and 100 µM) to determine their 50% inhibitory concentration (IC50) against A. castellanii.

HeLa cells = test: In vitro cytotoxicity, lactate dehydrogenase (LDH) assay; assay type: cell-based, human; settings: 50 µM, 24 h, LDH release
Method: HeLa cells were obtained from the American Type Culture Collection (ATCC CCL-2) and grown at 37 °C with 5% CO2 and 95% humidity in RPMI supplemented with 10% fetal bovine serum (FBS), 1% minimum essential medium amino acids, 1% Penicillin-Streptomycin (Pen-Strep) and 1% L-glutamine. The media was removed aseptically, and cells were detached enzymatically using 2 mL of trypsin EDTA. Next, culture containing dislodged cells was centrifuged at 2500× g for 5 min. The cell pellet was resuspended in the above-mentioned media, subsequently added into 96-well plates and utilized in different assays. In vitro cytotoxic effects of the tested molecules were determined using Lactate dehydrogenase (LDH) assays against human cells. In brief, 50 µM concentration of the tested compounds were incubated with HeLa cells monolayer for 24 h at 37 °C with 5% CO2 in humidified conditions. After this incubation, 0.1% triton X-100 was added to the positive control wells and incubated the plate for 45 min at 37 °C. Then, an equal volume of cells supernatant containing liberated LDH enzyme was mixed with an equal volume of LDH kit reagents (Cytotoxicity Detection kit; Roche Diagnostics, Indianapolis, IN, USA). The positive and negative controls were cell monolayers treated with 0.1 percent Triton X-100 and in RPMI alone. The plate was subjected to multi-plate reader and absorbance was recorded at 490 nm. The percent cytotoxicity was calculated using given formula; % Cell cytotoxicity = sample value − negative control value/positive control value − negative control value × 100.

[2] = test system: A. castellanii binding to HeLa cells; test: Adhesion assay: amoebae binding to human cells; assay type: cell-based, Acanthamoeba castellanii; settings: amoebae pre-treated with 50 µM for 2 h; 60 min on HeLa monolayer
Method: Adhesion assays were performed to determine how the tested molecules affect the binding capability of amoebae to human cells. Firstly, A. castellanii (5 ×10^5) trophozoites were treated with 50 µM of the compounds in serum-free RPMI medium at 30 °C for 2 h. Next, pre-treated amoebae were centrifuged at 3000× g for 5 min and re-suspended the amoeba in 200 µL of RPMI medium. The total assay volume including pre-treated amoeba was transferred to a confluent HeLa cell monolayer cultured in 96-well plates. For control, amoebae trophozoites alone were added to HeLa cell monolayer. The plates were incubated for 60 min at 37 °C with 5% CO2 and 95% humidity and amoebae (unbound) were then counted by haemocytometer. Percent bound amoebae was calculated using the following formula: % amoebae (bound) = 100 − amoebae (unbound)(1)

human cell lines = test: MTT assay (EC50/CC50 and MNTD90); assay type: cell-based; settings: for CC50: 50% effective/cytotoxic concentration (CC50), tested at 12.5–100 µM; for EC90: Maximum Non-Toxic Dose, read-out: MNTD/EC90
[3] = test system: A. castellanii trophozoites; test: Encystation assay; assay type: cell-based, Acanthamoeba castellanii; settings: 50 µM, 16% glucose, 30 °C, 48–72 h; negative control 100%
Method: Encystation assays were performed to determine the effects of the tested compounds to prevent the differentiation of A. castellanii trophozoites into the cyst form and 50 µM of the tested compounds were utilized. Briefly, A. castellanii (1 × 10^6) trophozoites were incubated with these compounds with 16% filter-sterilized glucose (as encystation medium) at 30 °C 48–72 h. A. castellanii cultured alone in 16% glucose was taken as negative control. After this incubation, 0.1% sodium dodecyl sulfate (SDS) was added to each well and agitated the plate for 20 min. The SDS resistant cysts were enumerated using a haemocytometer and data was recoded.

Which results are given for `COc1cccc(NC(=O)NCCNc2nccc(-c3c(-c4ccc(F)cc4)nc4sccn34)n2)c1` [Compound 1a]?
Amoebicidal Activity Inhibition % ± SEM [1]: 7.70% ± 3.57%; cytotoxicity against HeLa cells (HeLa cells): 35%

For `O=C(NCCNc1nccc(-c2c(-c3ccc(F)cc3)nc3sccn23)n1)Nc1cccc(C(F)(F)F)c1` [Compound 1b], which “Amoebicidal Activity Inhibition % ± SEM” value [1] is on record?
Its value is 12.86% ± 5.93%.

Which “Amoebicidal Activity Inhibition % ± SEM” value [1] does the source give for `O=C(NCCNc1nccc(-c2c(-c3ccc(F)cc3)nc3sccn23)n1)Nc1cc(C(F)(F)F)cc(C(F)(F)F)c1` [Compound 1c] here?
Its value is 17.28% ± 1.88%.

For `Cc1ccc(C(=O)NCCNc2nccc(-c3c(-c4ccc(F)cc4)nc4sccn34)n2)cc1` [Compound 1d], which “Amoebicidal Activity Inhibition % ± SEM” value [1] is on record?
The value was 39.50% ± 1.53%.

With `COc1ccc(C(=O)NCCNc2nccc(-c3c(-c4ccc(F)cc4)nc4sccn34)n2)cc1OC` [Compound 1e] as the compound, how does the “Amoebicidal Activity Inhibition % ± SEM” value [1] read?
The value was 44.50% ± 1.79%.

What about the “inhibition of amoebae binding to human cells” value (“inhibition of amoebae binding” below) [2] of the same compound?
Its value is 40%.

`O=C(NCCNc1nccc(-c2c(-c3ccc(F)cc3)nc3sccn23)n1)c1ccc2c(c1)OCCO2` [Compound 1f] was tested. Which “Amoebicidal Activity Inhibition % ± SEM” value [1] did it give?
Its value is 40.50% ± 4.84%.

For `O=C(NCCNc1nccc(-c2c(-c3ccc(F)cc3)nc3sccn23)n1)c1ccccc1O` [Compound 1g], which “Amoebicidal Activity Inhibition % ± SEM” value [1] is on record?
Its value is 42.20% ± 3.29%.

For `O=C(NCCNc1nccc(-c2c(-c3ccc(F)cc3)nc3sccn23)n1)c1cccc(C(F)(F)F)c1` [Compound 1h], which “Amoebicidal Activity Inhibition % ± SEM” value [1] is on record?
Its value is 38.16% ± 3.74%.

How did the “Amoebicidal Activity Inhibition % ± SEM” value [1] turn out when `Cc1cn(-c2cc(C(=O)NCCNc3nccc(-c4c(-c5ccc(F)cc5)nc5sccn45)n3)cc(C(F)(F)F)c2)cn1` [Compound 1j] was run?
Its value is 42.34% ± 3.81%.

For `O=C(NCCNc1nccc(-c2c(-c3ccc(F)cc3)nc3sccn23)n1)c1cc(N2CCOCC2)cc(C(F)(F)F)c1` [Compound 1k], which “Amoebicidal Activity Inhibition % ± SEM” value [1] is on record?
The value was 16.58% ± 6.08%.

And the “amoebicidal effects / antiamoebic activity against A. castellanii” value [1]?
The value was “did not show promising antiamoebic activity”.

For `CC(C)(C)OC(=O)N1CCN(CCNc2nccc(-c3c(-c4ccc(F)cc4)nc4sccn34)n2)S1(=O)=O` [Compound 1l], which “Amoebicidal Activity Inhibition % ± SEM” value [1] is on record?
Its value is 47.41% ± 1.67%.

What about the IC50 [1] of the same compound?
The IC50 was 59.9 µM.

And the “inhibition of amoebae binding” value [2]?
The value was 42%.

With `COc1cccc(-c2nc3sccn3c2-c2ccnc(NCCNC(=O)Nc3cc(C(F)(F)F)cc(C(F)(F)F)c3)n2)c1` [Compound 1n] as the compound, how does the “Amoebicidal Activity Inhibition % ± SEM” value [1] read?
The value was 51.05% ± 2.36%.

And the IC50 [1]?
Its IC50 is 47.5 µM.

What about the CC50 (human cell lines) of the same compound?
The CC50 was 648 µM.

What about the EC90 (human cell lines) of the same compound?
Its EC90 is 16.4 µM.

With `COc1cccc(-c2nc3sccn3c2-c2ccnc(NCCNC(=O)c3ccccc3)n2)c1` [Compound 1o] as the compound, how does the “Amoebicidal Activity Inhibition % ± SEM” value [1] read?
The value was 11.78% ± 11.34%.

And the “amoebicidal effects / antiamoebic activity against A. castellanii” value [1]?
Its value is “did not show promising antiamoebic activity”.

How did the “Amoebicidal Activity Inhibition % ± SEM” value [1] turn out when `COc1cccc(-c2nc3sccn3c2-c2ccnc(NCCNC(=O)c3ccccc3O)n2)c1` [Compound 1p] was run?
Its value is 36.42% ± 5.43%.

`COc1cccc(-c2nc3sccn3c2-c2ccnc(NCCNC(=O)c3cccc(C(F)(F)F)c3)n2)c1` [Compound 1q] was tested. Which “Amoebicidal Activity Inhibition % ± SEM” value [1] did it give?
Its value is 52.41% ± 5.31%.

What about the IC50 [1] of the same compound?
The IC50 was 47.7 µM.

And the “cytotoxicity against HeLa cells” value (HeLa cells)?
Its value is 38%.

What about the CC50 (human cell lines) of the same compound?
The CC50 was 584 µM.

And the EC90 (human cell lines)?
The EC90 was 30.6 µM.

`COc1cccc(-c2nc3sccn3c2-c2ccnc(NCCNC(=O)c3cc(C(F)(F)F)cc(C(F)(F)F)c3)n2)c1` [Compound 1r] was tested. Which “Amoebicidal Activity Inhibition % ± SEM” value [1] did it give?
Its value is 44.91% ± 8.42%.

What about the IC50 [1] of the same compound?
Its IC50 is 64.7 µM.

What about the CC50 (human cell lines) of the same compound?
The CC50 was 183 µM.

What about the EC90 (human cell lines) of the same compound?
The EC90 was 33.9 µM.

With `COc1cccc(-c2nc3sccn3c2-c2ccnc(NCCNC(=O)c3ccc(N4CCOCC4)c(C(F)(F)F)c3)n2)c1` [Compound 1s] as the compound, how does the “Amoebicidal Activity Inhibition % ± SEM” value [1] read?
The value was 39.10% ± 2.31%.

Which results are given for `COc1cccc(-c2nc3sccn3c2-c2ccnc(NCCNC(=O)c3cc(N4CCOCC4)cc(C(F)(F)F)c3)n2)c1` [Compound 1t]?
Amoebicidal Activity Inhibition % ± SEM [1]: 17.46% ± 3.75%; amoebicidal effects / antiamoebic activity against A. castellanii [1]: did not show promising antiamoebic activity

With `O=C(NCCNc1nccc(-c2c(-c3cccc(O)c3)nc3sccn23)n1)Nc1ccccc1` [Compound 1u] as the compound, how does the “Amoebicidal Activity Inhibition % ± SEM” value [1] read?
The value was 12.66% ± 5.04%.

What about the “amoebicidal effects / antiamoebic activity against A. castellanii” value [1] of the same compound?
The value was “did not show promising antiamoebic activity”.

What does the source list for `O=C(NCCNc1nccc(-c2c(-c3cccc(O)c3)nc3sccn23)n1)Nc1cccc(C(F)(F)F)c1` [Compound 1v]?
Amoebicidal Activity Inhibition % ± SEM [1]: 44.86% ± 2.98%; IC50 [1]: 60 µM; CC50 (human cell lines): 222 µM; EC90 (human cell lines): 5.36 µM

`O=C(NCCNc1nccc(-c2c(-c3cccc(O)c3)nc3sccn23)n1)Nc1cc(C(F)(F)F)cc(C(F)(F)F)c1` [Compound 1w] was tested. Which “Amoebicidal Activity Inhibition % ± SEM” value [1] did it give?
The value was 50.25% ± 4.67%.

What about the IC50 [1] of the same compound?
Its IC50 is 46.3 µM.

What about the CC50 (human cell lines) of the same compound?
The CC50 was 304 µM.

And the EC90 (human cell lines)?
Its EC90 is 36.1 µM.

With `O=C(NCCNc1nccc(-c2c(-c3cccc(O)c3)nc3sccn23)n1)c1ccccc1` [Compound 1x] as the compound, how does the “Amoebicidal Activity Inhibition % ± SEM” value [1] read?
The value was 48.02% ± 3.69%.

And the IC50 [1]?
The IC50 was 54 µM.

And the EC90 (human cell lines)?
The EC90 was 102 µM.

How did the “Amoebicidal Activity Inhibition % ± SEM” value [1] turn out when `O=C(NCCNc1nccc(-c2c(-c3cccc(O)c3)nc3sccn23)n1)c1ccccc1O` [Compound 1y] was run?
The value was 12.50% ± 4.68%.

What about the “amoebicidal effects / antiamoebic activity against A. castellanii” value [1] of the same compound?
Its value is “did not show promising antiamoebic activity”.

With `O=C(NCCNc1nccc(-c2c(-c3cccc(O)c3)nc3sccn23)n1)c1cccc(C(F)(F)F)c1` [Compound 1z] as the compound, how does the “Amoebicidal Activity Inhibition % ± SEM” value [1] read?
Its value is 52.53% ± 1.67%.

What about the IC50 [1] of the same compound?
The IC50 was 44.8 µM.

And the “inhibition of amoebae binding” value [2]?
The value was 42%.

And the “encystation blocked (trophozoites prevented from converting into cysts)” value [3]?
Its value is 60%.

And the CC50 (human cell lines)?
Its CC50 is 412 µM.

What about the EC90 (human cell lines) of the same compound?
Its EC90 is 80.9 µM.

With `O=C(NCCNc1nccc(-c2c(-c3cccc(O)c3)nc3sccn23)n1)c1cc(C(F)(F)F)cc(C(F)(F)F)c1` [Compound 1za] as the compound, how does the “Amoebicidal Activity Inhibition % ± SEM” value [1] read?
The value was 15.71% ± 6.61%.

What about the “amoebicidal effects / antiamoebic activity against A. castellanii” value [1] of the same compound?
Its value is “did not show promising antiamoebic activity”.

For `O=C(NCCNc1nccc(-c2c(-c3cccc(O)c3)nc3sccn23)n1)c1cc(N2CCOCC2)cc(C(F)(F)F)c1` [Compound 1zc], which “Amoebicidal Activity Inhibition % ± SEM” value [1] is on record?
The value was 14.79% ± 3.19%.

And the “amoebicidal effects / antiamoebic activity against A. castellanii” value [1]?
Its value is “did not show promising antiamoebic activity”.

What does the source list for `CN1CCN(CCNc2nccc(-c3c(-c4cccc(O)c4)nc4sccn34)n2)S1(=O)=O` [Compound 1zd]?
Amoebicidal Activity Inhibition % ± SEM [1]: 58.00% ± 3.41%; amoebicidal effects / antiamoebic activity against A. castellanii [1]: 58%; IC50 [1]: 41 µM; inhibition of amoebae binding to human cells [2]: 42%; encystation blocked (trophozoites prevented from converting into cysts) [3]: 62%; cytotoxicity against HeLa cells (HeLa cells): 37%; EC90 (human cell lines): 145 µM
